We go through 9 compounds from PubChem BioAssay (NCI).

Among the test systems are KM12 colon; EKVX NSCLC; SR leukemia; HL-60(TB) leukemia; SF-268 CNS; CAKI-1 renal; RPMI-8226 leukemia; U251 CNS; A549 NSCLC; NCI-H460 lung.
Holding throughout (experiment): NCI-60 cell line screen, 48 h

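Cells were grown in 96-well plates and exposed to each compound for 48 hours at five concentrations; endpoints were interpolated linearly between bracketing concentrations, or set to the highest concentration if not reached. GI50 is the concentration that inhibits growth by half. TGI marks complete inhibition of growth.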

On to `O=C1OC(O)[C@@H]2[C@H]1[C@H]1CC[C@@H]2O1` (stereo not given in full), for which the GI50 in the assay with KM12 colon is 21.5 µM; in the assay with EKVX NSCLC, above 100 µM; with SR leukemia, above 100 µM; in the assay on HL-60(TB) leukemia, above 42.3 µM; in the assay on SF-268 CNS, above 100 µM; with CAKI-1 renal, 71.9 µM. Further, the GI50 is 49.2 µM in the assay with RPMI-8226 leukemia, above 100 µM in the assay with U251 CNS, 60.8 µM with A549 NSCLC and above 100 µM with NCI-H460 lung. Besides, the TGI in the assay on KM12 colon was 72.8 µM; in the assay with EKVX NSCLC, above 100 µM; in the assay on SR leukemia, above 100 µM; in the assay with HL-60(TB) leukemia it was above 100 µM; in the assay on SF-268 CNS, above 100 µM; in the assay on CAKI-1 renal, above 100 µM. For the same compound, the TGI with RPMI-8226 leukemia, in the assay with U251 CNS, in the assay with A549 NSCLC and in the assay on NCI-H460 lung was above 100 µM in each case.

For the compound `Cc1cc(/C=C/c2ccc3cc(N(C)C)ccc3[n+]2C)c(C)n1-c1ccccc1`, the GI50 with KM12 colon is 0.158 µM; in the assay on EKVX NSCLC it was 0.102 µM; in the assay with SR leukemia, 0.0442 µM; with HL-60(TB) leukemia, 0.0939 µM; in the assay with SF-268 CNS, 0.215 µM; with CAKI-1 renal, 0.722 µM. Moreover, the GI50 in the assay on RPMI-8226 leukemia was 0.0698 µM; with U251 CNS, 0.129 µM; with A549 NSCLC it was 0.182 µM; in the assay with NCI-H460 lung it was 0.146 µM. Besides, the TGI with KM12 colon is 0.843 µM; in the assay with EKVX NSCLC, 3.9 µM; in the assay with SR leukemia it was 1.42 µM; in the assay on HL-60(TB) leukemia, 0.352 µM; in the assay with SF-268 CNS, 2.87 µM; in the assay on CAKI-1 renal, 2.24 µM. Also, the TGI stood at 0.696 µM in the assay with RPMI-8226 leukemia, 1.16 µM in the assay on U251 CNS, 1.02 µM with A549 NSCLC and 0.56 µM in the assay on NCI-H460 lung.

As to `N=Nc1c(OC(=O)Nc2cccc(Cl)c2)[nH]c2ccccc12`, the TGI in the assay on KM12 colon is 14.3 µM; in the assay on EKVX NSCLC, 16.8 µM; with SR leukemia it was 44.5 µM; in the assay with HL-60(TB) leukemia, 30.9 µM; with SF-268 CNS, 27.9 µM; in the assay with CAKI-1 renal, 15.2 µM. The TGI amounted to 10.7 µM in the assay on RPMI-8226 leukemia, 18.9 µM in the assay on U251 CNS, 18.7 µM in the assay on A549 NSCLC and 20 µM in the assay on NCI-H460 lung.

As to `COc1c(Cl)c(=O)oc2ccc(Cl)cc12`, the TGI with KM12 colon, in the assay on EKVX NSCLC, in the assay on SR leukemia, in the assay with HL-60(TB) leukemia, with SF-268 CNS and with CAKI-1 renal was above 100 µM throughout. Besides, the TGI with RPMI-8226 leukemia, in the assay with U251 CNS, with A549 NSCLC and in the assay on NCI-H460 lung was above 100 µM throughout.

For the compound `COc1ncnc(NS(=O)(=O)c2ccc(N=C3C(=O)N(CN4CCN(c5c(F)cc6c(=O)c(C(=O)O)cn(C7CC7)c6c5OC)CC4C)c4ccc(Cl)cc43)cc2)c1OC` (stereo not given), the GI50 was 13 µM in the assay with KM12 colon; 27.7 µM in the assay on EKVX NSCLC; 5.3 µM in the assay with SR leukemia; 14 µM in the assay with HL-60(TB) leukemia; 10.7 µM in the assay on SF-268 CNS; 6.44 µM with CAKI-1 renal. In addition, the GI50 in the assay on RPMI-8226 leukemia was 8.33 µM; with U251 CNS it was 9.61 µM; with A549 NSCLC it was 21.2 µM; in the assay on NCI-H460 lung, 11 µM. In addition, the TGI in the assay with KM12 colon is above 50 µM; in the assay on EKVX NSCLC, above 50 µM; with SR leukemia, above 50 µM; in the assay on HL-60(TB) leukemia, above 50 µM; in the assay on SF-268 CNS it was above 50 µM; in the assay on CAKI-1 renal it was 26.1 µM. Further, the TGI is 28.1 µM in the assay with RPMI-8226 leukemia, 45.2 µM with U251 CNS, above 50 µM in the assay with A549 NSCLC and above 50 µM in the assay with NCI-H460 lung.

As for `CN1CCN(CCCn2c(=O)c3sc4ncccc4c3n3nnc(-c4ccccc4)c23)CC1`, the GI50 with KM12 colon was 4.24 µM; in the assay on EKVX NSCLC, 6.47 µM; in the assay on SR leukemia, 1.11 µM; in the assay on HL-60(TB) leukemia, 0.795 µM; in the assay on SF-268 CNS it was 6.45 µM; with CAKI-1 renal, 6.16 µM. Moreover, the GI50 in the assay on RPMI-8226 leukemia is 6.1 µM; in the assay on U251 CNS it was 5.21 µM; in the assay on A549 NSCLC it was 6.81 µM; in the assay with NCI-H460 lung, 6.88 µM. The TGI with KM12 colon is 10.7 µM; with EKVX NSCLC, 13.3 µM; with SR leukemia it was 2.57 µM; with HL-60(TB) leukemia, 1.73 µM; with SF-268 CNS, 13.2 µM; with CAKI-1 renal it was 13 µM. The TGI with RPMI-8226 leukemia is 15.8 µM; in the assay with U251 CNS it was 11.2 µM; in the assay with A549 NSCLC, 13.8 µM; in the assay with NCI-H460 lung, 13.7 µM.

Turning to `Nc1ncnc2n[nH]c(Nc3ccc(F)cc3)c12`, the GI50 was 20.3 µM with KM12 colon; 33.6 µM in the assay with EKVX NSCLC; 13.3 µM in the assay on SR leukemia; 38.5 µM with HL-60(TB) leukemia; 28.7 µM with SF-268 CNS; 4.05 µM in the assay on CAKI-1 renal. Besides, the GI50 is 15.1 µM in the assay on RPMI-8226 leukemia, 28.6 µM with U251 CNS, 39.2 µM in the assay with A549 NSCLC and 16.3 µM in the assay with NCI-H460 lung. The TGI in the assay on KM12 colon is 86.3 µM; in the assay with EKVX NSCLC, above 100 µM; in the assay on SR leukemia, 94.6 µM; with HL-60(TB) leukemia, above 100 µM; with SF-268 CNS, above 100 µM; with CAKI-1 renal it was above 100 µM. Also, the TGI with RPMI-8226 leukemia, in the assay with U251 CNS, in the assay on A549 NSCLC and with NCI-H460 lung was above 100 µM in each case.

`CC(C)OP(=O)(OC(C)C)C(=NCCN=C(NNc1ccc([N+](=O)[O-])cc1)P(=O)(OC(C)C)OC(C)C)NNc1ccc([N+](=O)[O-])cc1`: the TGI was above 100 µM in the assay on KM12 colon; above 100 µM in the assay on EKVX NSCLC; above 100 µM with SR leukemia; above 100 µM in the assay with HL-60(TB) leukemia; above 100 µM in the assay on SF-268 CNS; 25.4 µM in the assay with CAKI-1 renal. Besides, the TGI was above 100 µM with RPMI-8226 leukemia, 91.2 µM with U251 CNS, above 100 µM with A549 NSCLC and above 100 µM in the assay on NCI-H460 lung.

On to `O=C(Nc1ccc(Cl)cc1)c1cccc(NC2=C(Cl)C(=O)N(Cc3ccccc3)C2=O)c1`, for which the GI50 was 48.5 µM in the assay on KM12 colon; 27.3 µM with EKVX NSCLC; 3.56 µM in the assay with SR leukemia; 4.37 µM in the assay on HL-60(TB) leukemia; 11.6 µM with SF-268 CNS; 3.5 µM in the assay on CAKI-1 renal. Further, the GI50 was 4.67 µM in the assay on RPMI-8226 leukemia, 9.92 µM in the assay on U251 CNS, 14.8 µM in the assay with A549 NSCLC and 15.2 µM in the assay with NCI-H460 lung. In addition, the TGI was above 100 µM in the assay on KM12 colon; above 100 µM in the assay with EKVX NSCLC; 14.9 µM in the assay on SR leukemia; 18.9 µM in the assay with HL-60(TB) leukemia; 30.1 µM with SF-268 CNS; 15.7 µM with CAKI-1 renal. The TGI came to 18.6 µM with RPMI-8226 leukemia, 21.5 µM in the assay on U251 CNS, 28 µM with A549 NSCLC and 35 µM with NCI-H460 lung.
